Test results taken from patent US20050187181A1 (University of Maryland, priority 2004, published 2005).
Entries after “also recorded” stand apart in the source; their conditions may differ. Where two headings read alike, the source gives them in different places.

Key:
[1] = tested on: murine model of colitis (DSS); conditions: cited from earlier work
[2] = tested on: septic shock induced by cecal ligation and puncture (CLP); conditions: cited from earlier work
[3] = human blood; cited from earlier work
[4] = water; cited from earlier work
[5] = tested on: Na/K ATPase; test: Na/K ATPase assay (86Rb uptake into red blood cells);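 further: washed human red blood cells in K-free Ringer, test agent preincubated 20 min, then 86Rb uptake over 4 h at 37 °C counted as CPM per tube versus water control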
Procedure: Human red blood cells of any group-type were donated for research by the Blood Bank of the University Of Maryland, School of Medicine. Five ml of red cells are washed 3 times in 40 ml of Potassium free Ringers solution (141 mM NaCl, 1 mM H2NaPO4, 0.5 mM CaCl2, 1 mM MgSO4, 4.5 mM glucose, 10 mM HEPES pH7.4). 50 μl of washed red cells are added to 220 μl of potassium free Ringers solution. 30, 10, 3 or 1 μl of ultra-filtrate, HPLC (high performance liquid chromatography) fraction, or adenosine, inosine, guanosine, deoxyadenosine, deoxyguanosine, caffeine, aminophylline, dipyridamole, NBTI, 6thioinosine, 6thioguanosine, or EHNA (all in buffer) is added to the mixture and incubated for 20 min. 4 μCi of 86RbCl is added and incubated for 4 hrs at 37° C. The mixture is than washed three times with 4° C. Potassium free Ringers solution and the cells counted in a gamma counter (Packard, Cobra II). Na/K ATPase activity is expressed as the CPM (counts per minute) (CPM/tube*4 hrs). The effects of ultra-filtrate or HPLC fractions on ^86Rb uptake into red cells are compared to equal volumes of either water (control) or, in some cases, 0.01 mM Ouabain (maximal inhibition).

[6] = tested on: rats in severe hemorrhagic shock; conditions: for survival compared to saline and cytidine controls (Kaplan-Meier): single dose of 2.5 mM in saline, 8 rats/group, p<0.001
Procedure: Pentobarbital-anesthetized rats were subjected to severe hemorrhagic shock. Five groups of eight rats were resuscitated.
Plasma K^+ was measured from plasma taken before hemorrhage, before resuscitation and 0.5 hrs after resuscitation using a K^+ electrode (Jenco Electronics, Inc., San Diego, Calif.). Survival time between groups was compared by Kaplan-Meier survival Analysis.

[7] = tested on: rat in endotoxic shock (LPS); test: Endotoxic shock (LPS 10 mg/kg iv) with intravenous inosine infusion; assay type: in vivo
Procedure: Pentobarbital-anesthetized (50 mg/kg) rats (380-420 g) had cannulas placed in their femoral artery and vein. Arterial Blood pressure was monitored via the femoral artery cannula. After 15 minutes of stabilization, the rats were injected with 10 mg/kg of lipopolysaccharide (LPS, Sigma Aldrich, serotype 026:B6) in saline via the femoral vein. At the same time, an infusion of saline or inosine (5 mM) in saline or no infusion was begun (5 ml/hr) via the femoral vein cannula. A 5 mM solution of inosine is […]. Arterial pressure and heart rate were monitored throughout the procedure. Survival time was recorded. Supplemental doses (15 mg/kg) of pentobarbital were given via the femoral vein cannula every hour. Rats surviving beyond 8.5 hr had their cannulas removed and were allowed to recover from pentobarbital anesthesia. These rats lived till 48 hours at which time we terminated the experiment. Inosine was administered at a rate of 1.34 mg/ml at 5 ml/hour for 5 hours which is a total of 33.5 mg for 5 hours. In 400 gram rats that is a total of about 83.75 mg/kg over the 5 hour period; 16.75 mg/hr or 402 mg/day.

[8] = tested on: lipopolysaccharide-induced shock; conditions: cited from earlier work

SMILES: OC[C@H]1O[C@@H](n2cnc3c(O)ncnc32)[C@H](O)[C@@H]1O [inosine]
- mortality ([1]; oral inosine from day one, by day 30): 60%
- protection of colon ([1]; oral inosine): protected the colon from DSS induced inflammatory cell infiltration and lipid peroxidation
- organ damage ([2]; 100 mg/kg IP x3): significantly reduced
- survival ([2]; 100 mg/kg IP x3): significantly improved
- mortality ([2]; post-treatment protocol, 100 mg/kg IP x3, at 24 hours): about 20%
- mortality ([2]; post-treatment protocol, at 120 hours): about 90%
- mortality ([2]; post-treatment protocol, by 48 hours): about 80%
- mortality ([2]; pre-treatment protocol, 100 mg/kg IP x3, by 24 hours): 15%
- mortality ([2]; pre-treatment protocol, by 48 hours): about 70%
- mortality ([2]; pre-treatment protocol, by 120 hours): about 75%
- half life [3]: < 1 s
- solubility [4]: highly soluble in water
- relative effectiveness at stimulating Na/K ATPase ([5]; 10^-3 Molar (FIG. 8)): both equally effective
- stimulation of Na/K ATPase ([5]; human red blood cells, dose response (FIG. 3b, FIG. 8)): stimulated Na/K ATPase in a dose-dependent manner
- stimulation of Na/K ATPase in the presence of ouabain ([5]; partial inhibition / sub maximal doses of ouabain (FIG. 9)): overcame partial inhibition by ouabain
- bradycardia on resuscitation from hemorrhagic shock ([6]; 2.5 mM in saline): did not cause the bradycardia
- time to 50% mortality ([6]; 2.5 mM in saline): about 100 minutes
- time to 100% mortality ([6]; 2.5 mM in saline): about 150 minutes
- effect on shock-elevated plasma K^+ ([6]; 2.5 mM in saline, 0.5 hr): lowered the shock-elevated plasma K^+
- Plasma K^+ 0.5 hr after Resuscitation ([6]; 2.5 mM in saline, mean ± SE, N = 7/group): 2.93 ± 0.21 mM
- adverse effects on resuscitation from hemorrhagic shock ([6]; rat, in vivo): without any adverse effects
- survival compared to saline and cytidine controls (Kaplan-Meier) [6]: survived significantly longer
- survival compared to saline and cytidine controls (Kaplan-Meier) ([6]; listed as Inosine): survived significantly longer than saline or cytidine controls; also recorded: significantly increased survival
- survival compared to saline or no-resuscitation groups (Kaplan-Meier) ([7]; continuous infusion 5 ml/hr of 5 mM for 5 hrs): survived significantly longer than the saline or no-resuscitation groups
- survival / success in resuscitating rats fully ([7]; iv infusion 5 mM, 5 ml/hr, 5 hours, observed to 48 hours): 100%
- mortality ([8]; single IP 100 mg/kg 30 minutes before LPS 70 mg/kg IP, at 36 hours): 19%
- mortality ([8]; single IP 100 mg/kg before LPS, at 60 hours): 37.5%
- mortality ([8]; single IP 100 mg/kg before LPS, by 96 hours): 50%
- survival compared to untreated mice ([8]; single IP 100 mg/kg before LPS): prolonged survival compared to untreated mice
